Experimental data from patent US8962622B2, “Benzotriazole kinase modulators” (Roche Palo Alto LLC, priority 2006, dated 2015).

| SMILES | melting point [°C] |
| --- | --- |
| O=C1CCC(=O)N1[C@H]1CC[C@H](Nc2nccc(-n3nnc4ccccc43)n2)CC1 [Example 15, 1-[trans-4-(4-benzotriazol-1-yl-pyrimidin-2-ylamino)-cyclohexyl]-pyrrolidine-2,5-dione] | 205 to 210 |
| O=C1CCC(Nc2nccc(-n3nnc4ccccc43)n2)CC1 [Example 16, 4-(4-benzotriazol-1-yl-pyrimidin-2-ylamino)-cyclohexanone] | 204.9 to 206.5 |
| CN(c1nccc(-n2nnc3ccccc32)n1)[C@H]1CC[C@H](N(C)S(C)(=O)=O)CC1 [Example 14, N-{trans-4-[(4-benzotriazol-1-yl-pyrimidin-2-yl)-methyl-amino]-cyclohexyl}-N-methyl-methanesulfonamide] | 203.5 to 204 |
| OC[C@H]1CCCC[C@H]1Nc1nccc(-n2nnc3ccccc32)n1 [Example 9, (1S,2R)-[2-(4-benzotriazol-1-yl-pyrimidin-2-ylamino)-cyclohexyl]-methanol] | 206.1 to 207.8 |
| CC1(O)CCC(Nc2nccc(-n3nnc4ccccc43)n2)CC1 (stereo not drawn) [Example 17, 4-(4-benzotriazol-1-yl-pyrimidin-2-ylamino)-1-methyl-cyclohexanol] | 202.1 to 205.6 |
| COCC(=O)N[C@H]1CC[C@H](Nc2nccc(-n3nnc4ccccc43)n2)CC1 [Example 24, trans-N-[4-(4-Benzotriazol-1-yl-pyrimidin-2-ylamino)-cyclohexyl]-2-methoxy-acetamide] | 233.5 to 235.4 |
